Laboratory results: US8097733B2, “Pyrazole derivatives as 5-LO-inhibitors” (Pfizer Inc., priority 2007, dated 2012)

How the values were obtained:
[1] = Emesis evaluation in beagle dogs, IV infusion; format: in vivo; settings: 8-12 kg beagle dogs, loading dose followed by slow infusion
Experimental: The occurrence of these gastrointestinal symptoms after administration of these compounds limited their clinical utility. Experiments are undertaken to differentiate local gastrointestinal emetic stimuli during dissolution and absorption of an oral compound from emetic stimuli produced during systemic exposure through the bloodstream. […] These findings are observed after 8-12 kg purpose-bred beagle dogs are administered 4-(3-{[4-(1-methyl-1H-pyrazol-5-yl)phenyl]thio}phenyl)tetrahydro-2H-pyran-4-carboxamide by IV infusion, using a loading dose followed by a slow infusion to attain a peak blood level over 30 minutes to 1 hour in duration. More specifically, compounds are diluted in phosphate buffered saline to a concentration where 10 ml/kg total volume was administered through an intravenous catheter using an infusion pump, with approximately 90% of the total dose being delivered in the first 5 minutes, and the remaining dose administered over the next 25 minutes. Similar delivery methods to produce an exposure that approximates the systemic pharmacokinetic profile seen with oral delivery are anticipated to give similar results. […] For compounds of the invention, emesis, can for example be evaluated by administering the named compound orally at doses of 10 mg per kg, 100 mg per kg fasted, and 100 mg per kg fed, and evaluating emesis in dogs. […]

[2] = tested on: human whole blood (leukotriene and prostaglandin levels); assay: Eicosanoid production from human whole blood; format: cell-based; settings: human whole blood stimulated with calcium ionophore A23187 and arachidonic acid; ELISA
Summary of the method: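 Pooled heparinized whole blood from healthy or asthmatic donors was preincubated with compound for 10 min at room temperature, with 2.5% DMSO final. It was stimulated with calcium ionophore A23187 plus arachidonic acid (30 μM) in 60% ethanol for 15 min at 37 °C. Plasma leukotrienes and prostaglandins were measured by ELISA.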

recombinant human 5-LOX = biological target: T1, recombinant human 5-LOX (Homo sapiens, UniProt P09917); assay: Fluorescence Intensity 5-LOX Enzyme Assay; format: biochemical; settings: crude lysate of recombinant human 5-LOX; highest inhibitor concentration tested typically 25 μM
T1 sequence (P09917 1-674): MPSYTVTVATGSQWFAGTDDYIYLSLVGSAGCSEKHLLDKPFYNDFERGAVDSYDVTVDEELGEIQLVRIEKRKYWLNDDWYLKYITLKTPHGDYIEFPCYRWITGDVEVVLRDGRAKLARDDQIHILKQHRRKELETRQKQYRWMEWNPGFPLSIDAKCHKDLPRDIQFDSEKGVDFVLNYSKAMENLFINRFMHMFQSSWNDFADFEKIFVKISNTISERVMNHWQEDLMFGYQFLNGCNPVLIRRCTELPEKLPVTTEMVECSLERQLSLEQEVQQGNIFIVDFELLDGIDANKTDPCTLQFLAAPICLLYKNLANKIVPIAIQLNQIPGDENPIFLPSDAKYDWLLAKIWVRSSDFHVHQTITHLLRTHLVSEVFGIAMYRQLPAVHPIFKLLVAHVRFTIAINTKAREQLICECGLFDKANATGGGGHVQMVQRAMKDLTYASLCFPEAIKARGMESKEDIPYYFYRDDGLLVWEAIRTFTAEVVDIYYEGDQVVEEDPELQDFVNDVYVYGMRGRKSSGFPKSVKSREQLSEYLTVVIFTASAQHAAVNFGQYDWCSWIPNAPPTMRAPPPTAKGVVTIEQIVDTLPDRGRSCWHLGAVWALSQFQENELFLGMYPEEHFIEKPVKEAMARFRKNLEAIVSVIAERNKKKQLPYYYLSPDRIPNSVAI
Summary of the method: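 Crude lysate enzyme with H2DCFDA 10 μM (5 min dye pre-incubation), inhibitor pre-incubated 10 min; reaction started with 3 μM arachidonic acid plus 10 μM ATP in Tris pH 7.5, CaCl2, EDTA, 20 min at room temperature, acetonitrile stop. Fluorescein fluorescence; 7-point 4-parameter IC50, top 25 μM, 2.5% DMSO.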

[3] = tested on: eicosanoid production in the rat air pouch; assay: Carrageenan-induced eicosanoid production in the rat air pouch; format: in vivo; settings: po, male Lewis rats, 3 mpk by gavage 1 hour prior to carrageenan
Experimental: Carrageenan-Induced Eicosanoid Production in the Rat Air Pouch:
Male Lewis rats (175-200 g), Charles River Laboratories, Wilmington, Mass.) were used in the study. Air pouches were produced by subcutaneous injection of 20 ml of sterile air into the intrascapular area of the back. Pouches were allowed to develop for 1 day. Animals (6 per group) were fasted with free access to water for 16 to 24 hours prior to drug administration. Drugs or vehicle were administered by gavage 1 hour prior to injection of 2 ml of a 1% suspension of carrageenan (FMC BioPolymer, Philadelphia, Pa., Cat. # GP209-NF) dissolved in saline into the pouch. At 3 hours post-carrageenan injection, 1 ml of 50 μg/ml calcium ionophore in saline (A23187, Sigma Chemical Co, St. Louis, M, Cat. #C-7522) was injected into the pouch and the pouch fluid collected 10 minutes later by lavage. The fluid was centrifuged at 3500 rpm for 10 minutes at 4° C., and the supernatants were collected for analysis. Leukotriene and prostaglandin levels were quantitated by ELISA according to the manufacturer's directions (Cayman Chemical Company, Ann Arbor, Mi).

| Structure (SMILES) | IC50 [2] [nM] | IC50 (recombinant human 5-LOX) [nM] | nausea and emesis [1] | inhibition at 3 mg/kg [3] [%] |
| --- | --- | --- | --- | --- |
| Cn1nccc1-c1ccc(Sc2cccc(C3(C(N)=O)CCOCC3)c2)cc1 [4-(3-{[4-(1-methyl-1H-pyrazol-5-yl)phenyl]thio}phenyl)tetrahydro-2H-pyran-4-carboxamide] |  |  | produce nausea and emesis through systemic exposure |  |
| C[C@H]1C[C@@](C#N)(c2ccc(F)c(Sc3ccc(-c4ccnn4C)cc3)c2)CCO1 [Example 24, (2S,4R)-4-(4-fluoro-4-(4-(1-methyl-1H-pyrazol-5-yl)phenylthio)phenyl)-2-methyl-tetrahydro-2H-pyran-4-carbonitrile] | 150 | 692 |  | 32 |
| Cn1nccc1-c1ccc(Sc2cc(C3(C(N)=O)CCOCC3)ccc2F)cc1 [Example 21, 4-(4-fluoro-3-(4-(1-methyl-1H-pyrazol-5-yl)phenylthio)phenyl)-tetrahydro-2H-pyran-4-carboxamide] | 859 | 567 |  | 96 |
| CNC(=O)C1(c2cccc(Sc3ccc(-c4ccnn4C)cc3)c2)CCOCC1 [Example 10, N-Methyl-4-(3-{[4-(1-methyl-1H-pyrazol-5-yl)phenyl]thio}phenyl)tetrahydro-2H-pyran-4-carboxamide] | 294 | 287 |  | 5 |
| C[C@H]1C[C@@](C#N)(c2cccc(Sc3cnc(Oc4ccnn4C)c(Cl)c3)c2F)CCO1 [52(4), (2S,4R)-4-(3-(5-chloro-6-(1-methyl-1H-pyrazol-5-yloxy)pyridin-3-ylthio)-2-fluorophenyl)-2-methyl-tetrahydro-2H-pyran-4-carbonitrile] | 118 | 29.1 |  | 97 |
| C[C@H]1C[C@@](C#N)(c2cc(F)cc(Sc3ccc(-c4ccnn4C)cc3)c2)CCO1 [27(2), (2S,4R)-4-(3-fluoro-5-(4-(1-methyl-1H-pyrazol-5-yl)phenylthio)phenyl)-2-methyl-tetrahydro-2H-pyran-4-carbonitrile] | 123 | 331 |  | 100 |
| Cn1nccc1-c1ccc(Sc2cccc(C3(C(N)=O)CCOCC3)c2)c(Cl)c1 [Example 13, 4-(3-{[2-chloro-4-(1-methyl-1H-pyrazol-5-yl)phenyl]thio}phenyl)tetrahydro-2H-pyran-4-carboxamide] | 119 | 54 |  | 1 |
| Cn1nccc1-c1ncc(Sc2cccc(C3(C(N)=O)CCOCC3)c2)cc1Cl [Example 11, 4-(3-{[5-chloro-6-(1-methyl-1H-pyrazol-5-yl)pyridin-3-yl]thio}phenyl)tetrahydro-2H-pyran-4-carboxamide] | 260 | 386 |  | 69 |
| Cn1nccc1-c1ccc(Sc2cc(F)cc(C3(C(N)=O)CCOCC3)c2)cc1 [Example 15, 4-(3-fluoro-5-{[4-(1-methyl-1H-pyrazol-5-yl)phenyl]thio}phenyl)tetrahydro-2H-pyran-4-carboxamide] | 365 | 264 |  | 68.5 |
| CNC(=O)C1(c2cccc(Sc3ccc(-c4ccnn4C)cc3)c2F)CCOCC1 [Example 17, 4-(2-fluoro-3-{[4-(1-methyl-1H-pyrazol-5-yl)phenyl]thio}phenyl)-N-methyl-tetrahydro-2H-pyran-4-carboxamide] | 962 | 146 |  | 83 |
| C[C@H]1C[C@@](C(N)=O)(c2cccc(Sc3ccc(C(=O)c4ccnn4C)cc3)c2)CCO1 [Example 39, (2S,4R)-2-methyl-4-(3-(4-(1-methyl-1H-pyrazole-5-carbonyl)phenylthio)phenyl)-tetrahydro-2H-pyran-4-carboxamide] | 407 | 23.8 |  | 66 |
| C[C@H]1C[C@@](C(N)=O)(c2ccc(F)c(Sc3ccc(-c4ccnn4C)cc3)c2)CCO1 [Example 23, (2S,4R)-4-(4-fluoro-3-(4-(1-methyl-1H-pyrazol-5-yl)phenylthio)phenyl)-2-methyl-tetrahydro-2H-pyran-4-carboxamide] | 314 | 39.8 |  | 76 |
| C[C@H]1C[C@@](C#N)(c2cccc(Sc3ccc(-c4ccnn4C)c(F)c3)c2)CCO1 [30(2), (2S,4R)-4-(3-(3-fluoro-4-(1-methyl-1H-pyrazol-5-yl)phenylthio)phenyl)-2-methyl-tetrahydro-2H-pyran-4-carbonitrile] | 55.7 | 113 |  | 95 |

Second part, led by results:

| IC50 [2] [nM] | IC50 (recombinant human 5-LOX) [nM] | Structure (SMILES) | nausea and emesis [1] | inhibition at 3 mg/kg [3] [%] |
| --- | --- | --- | --- | --- |
| 407 | 21.9 | C[C@H]1C[C@@](C(N)=O)(c2cccc(Sc3ccc(C(=O)c4ccnn4C)cc3)c2F)CCO1 [Example 40] |  | 96 |
| 272 | 20.7 | C[C@H]1C[C@@](C(N)=O)(c2cccc(Sc3cnc(Oc4ccnn4C)c(Cl)c3)c2F)CCO1 [Example 52, (2S,4R)-4-(3-(5-chloro-6-(1-methyl-1H-pyrazol-5-yloxy)pyridin-3-ylthio)-2-fluorophenyl)-2-methyl-tetrahydro-2H-pyran-4-carboxamide] |  | 100 |
| 539 | 4130 | Cn1nccc1-c1ccc(Sc2cccc(C3(C#N)CCOCC3)c2)cc1F [Example 46, 4-(3-{[3-fluoro-4-(1-methyl-1H-pyrazol-5-yl)phenyl]thio}phenyl)tetrahydro-2H-pyran-4-carbonitrile] |  | 0 |
| 203 | 554 | Cn1nccc1Oc1ccc(Sc2cccc(C3(C(N)=O)CCOCC3)c2)cc1C#N [Example 51, 4-[3-({3-cyano-4-[(1-methyl-1H-pyrazol-5-yl)oxy]phenyl}thio)phenyl]tetrahydro-2H-pyran-4-carboxamide] |  | 77 |
| 1240 | 357 | CNC(=O)C1(c2cccc(Sc3ccc(-c4ccnn4C)cc3)c2Cl)CCOCC1 [Example 55, 4-(2-chloro-3-{[4-(1-methyl-1H-pyrazol-5-yl)phenyl]thio}phenyl)-N-methyltetrahydro-2H-pyran-4-carboxamide] |  | 64 |
| 405 | 277 | Cn1nccc1Oc1ncc(Sc2cccc(C3(C(N)=O)CCOCC3)c2)cc1Cl [Example 41, 4-(3-(5-chloro-6-(1-methyl-1H-pyrazol-5-yloxy)pyridin-3-ylthio)phenyl)-tetrahydro-2H-pyran-4-carboxamide] |  | 98 |
| 514 | 85.1 | Cn1ncc(Cl)c1-c1ccc(Sc2cccc(C3(C(N)=O)CCOCC3)c2)cc1 [Example 57, 4-(3-{[4-(4-chloro-1-methyl-1H-pyrazol-5-yl)phenyl]thio}phenyl)tetrahydro-2H-pyran-4-carboxamide] |  | 62 |
